# Where two headings read alike, the source gives them in different places.
# B1: G glycoprotein: purified G glycoprotein isolated from RSV/A2-infected Vero cells (protein)
# chain: MSKNKDQRTAKTLERTWDTLNHLLFISSCLYKLNLKSVAQITLSILAMIISTSLIIAAIIFIASANHKVTPTTAIIQDATSQIKNTTPTYLTQNPQLGISPSNPSEITSQITTILASTTPGVKSTLQSTTVKTKNTTTTQTQPSKPTTKQRQNKPPSKPNNDFHFEVFNFVPCSICSNNPTCWAICKRIPNKKPGKKTTTKPTKKPTLKTTKKDPKPQTTKSKEVPTTKPTEEPTINTTKTNIITTLLTSNTTGNPELTSQMETFHSTSSEGNPSPSQVSTTSEYPSQPSSPPNTPRQ
# Experiments:
# [1] = test system: RSV; test: RSV plaque reduction assay on Vero cells (Example 1); assay type: cell-based, RSV/A2
# Experimental: Dilutions of Fkn (R&D systems), SDF-1 α (R&D systems), G glycoprotein, heparin (Sigma), G glycoprotein peptides and anti-CX3CR1 antibody were made in serum-free Dulbecco's Modified Eagle's Media (DMEM; GIBCO) containing 1% BSA (Sigma) and preincubated with the Vero cells for 1 h at 37° C. 50 μg of anti-CX3CR1 antibody or heat-inactivated (56° C., 30 min) normal rabbit sera (control) were used in all experiments. […] Dilutions of RSV were made in serum-free DMEM (GIBCO) and added to pretreated Vero cells for 2 h at 37° C. Following virus infection, DMEM (GIBCO) containing 10% FBS (Hyclone, Logan, Utah) was added to the wells. Plaques were enumerated using immunostaining for F and G glycoproteins using biotinylated monoclonal antibodies 131-2A (anti-F glycoprotein) and 130-2G (anti-G glycoprotein) as described^45.
# RSV plaque reduction following treatment with G glycoprotein, Fkn, G glycoprotein peptides, anti-CX3CR1 antibody, SDF-1-α and/or heparin as described in Methods. Percent inhibition was determined from the mean plaque forming units (pfu) of treated Vero cells over saline-treated Vero cells using a dilution of RSV that would produce 40-80 pfu. p-values were determined using unpaired two-tailed analysis where p<0.05 is significant. The concentration of G glycoprotein was estimated using a molecular weight of 90 kD.
# [2] = test system: G glycoprotein binding to 293-CX3CR1 cells; parameters: species or system human; conditions: for percent staining of G glycoprotein on CX3CR1-293 cells in the presence of peptide: 10 nM G glycoprotein, 84% without peptide, FIG. 1
# Experimental: All binding studies were done on ice and either G glycoprotein or human Fkn (R&D Diagnostics, Minneapolis, Minn.) were diluted between 1 nM-100 nM in PBS (GIBCO) containing 1% bovine serum albumin (Sigma) and incubated with the 293-CX3CR1 cells or 293 control cells for 30 min at 4° C. […] Without washing, 100 pM of either Fkn or G glycoprotein was added and incubated for 30 min at 4° C. The cells were washed, blocked with FcγRIII blocking antibody (HB197) for 30 min on ice, washed and stained as appropriate with either an anti-G glycoprotein monoclonal antibody cocktail (132-5B, 132-5G, 130-2G, 232-IF) or a biotinylated anti-G glycoprotein monoclonal antibody cocktail (130-2G, 131-2G) or anti-Fkn monoclonal antibody (51637.11; R&D Diagnostics). Concentrations of 1 μg of anti-G glycoprotein monoclonal antibody (131-2G)^34, rabbit anti-CX3CR1 sera^33, and anti-CX3CR1 monoclonal antibody containing 10 μg/ml heparin were used in all experiments. […] Staining was detected with absorbed FITC-goat anti-mouse (H & L chain) monoclonal antibody (PharMingen, San Diego, Calif.) or streptavidin-PE (PharMingen) using flow cytometry (FACScan, Becton-Dickinson, Mountain View, Calif.). A 76 amino acid ^125I-Fkn polypeptide comprising the […] (NEN, Boston, Mass.) was used in radioligand studies^33. As a control, the void volume following purified G glycoprotein passaged over an anti-G glycoprotein antibody (130-2G) affinity column was examined by flow cytometry for binding to either 293 or 293-CX3CR1 cells.
# (§1) For peptide inhibition studies, a series of G glycoprotein peptides were identified in the amino acid sequence of the A2 strain of RSV (GENBANK, attachment protein locus 1912305, Table 4). The peptides were synthesized using a simultaneous, multiple solid-phase peptide synthesis method on a peptide synthesizer (Perkin-Elmer Applied Biosystems, Berkeley, Calif.), and tested for homogeneity by reverse-phase liquid chromatography and capillary electrophoresis (www.biotech.cdc.gov/protein/methods). Inhibition assays were performed as described for the binding studies above.
# (§2) To determine if G glycoprotein bound 293-CX3CR1 cells via CX3CR1, the ability of four reagents (anti-CX3CR1 rabbit antiserum, anti-CX3CR1 monoclonal antibody (2A9-1), Fkn and a 76 amino acid 125-I-Fkn polypeptide containing the CX3C domain) that bind to CX3CR1 to block G glycoprotein binding to 293-CX3CR1 cells was examined. In addition, to determine if binding of G glycoprotein to 293-CX3CR1 cells was dependent upon the CX3C motif, G glycoprotein peptides with a single residue insertion (Δ+1) or deletion (Δ−1) in the CX3C motif and also peptides that lacked or included the CX3C motif (Table 4) were generated. This panel of peptides was analyzed for their ability to block G glycoprotein or Fkn binding to 293-CX3CR1 cells.
# (§3) Inhibition of Fkn and G glycoprotein binding to 293-CX3CR1 cells by treatment with monoclonal antibodies to G glycoprotein or CX3CR1, or treatment with G glycoprotein, Fkn, or G glycoprotein peptides in the presence or absence of heparin as described in Methods. […] The concentration of G glycoprotein was estimated using a molecular weight of 90 kD.
# [3] = target: T1, Fkn binding to 293-CX3CR1 cells (Homo sapiens, UniProt P49238); conditions: no heparin
# T1 construct: host or cells: HEK 293 cells stably transfected with CX3CR1
# T1 sequence (P49238 whole entry): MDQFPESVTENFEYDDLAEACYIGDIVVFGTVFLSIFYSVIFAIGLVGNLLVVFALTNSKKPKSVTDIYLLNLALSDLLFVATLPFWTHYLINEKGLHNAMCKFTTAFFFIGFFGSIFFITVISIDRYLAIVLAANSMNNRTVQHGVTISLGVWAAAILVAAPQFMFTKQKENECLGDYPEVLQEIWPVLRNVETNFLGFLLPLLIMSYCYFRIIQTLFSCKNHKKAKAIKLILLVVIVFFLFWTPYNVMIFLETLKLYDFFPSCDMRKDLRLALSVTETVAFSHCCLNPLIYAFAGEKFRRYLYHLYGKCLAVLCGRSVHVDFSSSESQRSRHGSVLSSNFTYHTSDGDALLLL
# Experimental: All binding studies were done on ice and either G glycoprotein or human Fkn (R&D Diagnostics, Minneapolis, Minn.) were diluted between 1 nM-100 nM in PBS (GIBCO) containing 1% bovine serum albumin (Sigma) and incubated with the 293-CX3CR1 cells or 293 control cells for 30 min at 4° C. […] For inhibition studies, 100 pM-1 μM human Fkn or G glycoprotein was preincubated with the cells for 30 min at 4° C. Without washing, 100 pM of either Fkn or G glycoprotein was added and incubated for 30 min at 4° C. The cells were washed, blocked with FcγRIII blocking antibody (HB197) for 30 min on ice, washed and stained as appropriate with either an anti-G glycoprotein monoclonal antibody cocktail (132-5B, 132-5G, 130-2G, 232-IF) or a biotinylated anti-G glycoprotein monoclonal antibody cocktail (130-2G, 131-2G) or anti-Fkn monoclonal antibody (51637.11; R&D Diagnostics). Concentrations of 1 μg of anti-G glycoprotein monoclonal antibody (131-2G)^34, rabbit anti-CX3CR1 sera^33, and anti-CX3CR1 monoclonal antibody containing 10 μg/ml heparin were used in all experiments. […] Staining was detected with absorbed FITC-goat anti-mouse (H & L chain) monoclonal antibody (PharMingen, San Diego, Calif.) or streptavidin-PE (PharMingen) using flow cytometry (FACScan, Becton-Dickinson, Mountain View, Calif.). A 76 amino acid ^125I-Fkn polypeptide comprising the […] (NEN, Boston, Mass.) was used in radioligand studies^33. As a control, the void volume following purified G glycoprotein passaged over an anti-G glycoprotein antibody (130-2G) affinity column was examined by flow cytometry for binding to either 293 or 293-CX3CR1 cells.
# as §1, §2, §3
molecule,measurement,setting,value
"Fkn: CX3C chemokine fractalkine (R&D), ligand of CX3CR1 [reference compound]",plaque inhibition (%),[1]; 100 pM,0%
same,plaque inhibition (%),[1]; 1 nM,31%
same,plaque inhibition (%),[1]; 10 nM,80%
same,plaque inhibition (%),[1]; heparin 5 μg/ml + Fkn 10 nM,97%
same,Range of Inhibition (%) of G glycoprotein binding,[2]; heparin 5 μg/ml + Fractalkine 10 nM,85-98%
same,Range of Inhibition (%) of G glycoprotein binding,"[2]; inhibitor 100 pM, no heparin",2-5%
same,Range of Inhibition (%) of G glycoprotein binding,"[2]; inhibitor 10 nM, no heparin",8-15%
same,Range of Inhibition (%) of G glycoprotein binding,"[2]; inhibitor 1 μM, no heparin",20-34%
NKKPGKKTTTKP [RT34],plaque inhibition (%),[1]; 1 μM,6%
same,Range of Inhibition (%) of Fkn binding,[3]; inhibitor 1 μM,6-14%
same,Range of Inhibition (%) of G glycoprotein binding,"[2]; inhibitor 1 μM, no heparin",4-18%
TCWACKRIPNK (TCWAIACKRIPNK) [Δ − 1],plaque inhibition (%),[1]; 1 μM,0%
same,Range of Inhibition (%) of Fkn binding,[3]; inhibitor 1 μM,0-4%
same,percent staining of G glycoprotein on CX3CR1-293 cells in the presence of peptide,[2],73%
same,Range of Inhibition (%) of G glycoprotein binding,"[2]; inhibitor 1 μM, no heparin",8-12%
TCWAIACKRIPNK [Δ + 1],plaque inhibition (%),[1]; 1 μM,30%
same,Range of Inhibition (%) of Fkn binding,[3]; inhibitor 1 μM,0-8%
same,percent staining of G glycoprotein on CX3CR1-293 cells in the presence of peptide,[2],65%
same,Range of Inhibition (%) of G glycoprotein binding,"[2]; inhibitor 1 μM, no heparin",16-22%
TCWAICKRIPNK [RT33],plaque inhibition (%),[1]; 1 μM,71%
same,plaque reduction by peptide alone,[1]; concentration not stated,16%
same,plaque inhibition (%),[1]; heparin 5 μg/ml + peptide 1 μM,92%
same,Range of Inhibition (%) of Fkn binding,[3]; inhibitor 1 μM,18-27%
same,Range of Inhibition (%) of G glycoprotein binding,[2]; heparin 5 μg/ml + peptide 1 μM,85-94%
same,Range of Inhibition (%) of G glycoprotein binding,"[2]; inhibitor 1 μM, no heparin",35-42%
VPCSICSNNPTC [RT32],plaque inhibition (%),[1]; 1 μM,2%
same,Range of Inhibition (%) of Fkn binding,[3]; inhibitor 1 μM,6-12%
same,Range of Inhibition (%) of G glycoprotein binding,"[2]; inhibitor 1 μM, no heparin",8-14%
B1,plaque inhibition (%),[1]; 1 nM,0%
same,plaque inhibition (%),[1]; 10 nM,49%
same,plaque inhibition (%),[1]; 100 nM,61%
same,plaque inhibition (%),[1]; heparin 5 μg/ml + G glycoprotein 100 nM,98%
same,Range of Inhibition (%) of Fkn binding,[3]; inhibitor 100 pM,5-8%
same,Range of Inhibition (%) of Fkn binding,[3]; inhibitor 10 nM,32-38%
same,Range of Inhibition (%) of Fkn binding,[3]; inhibitor 1 μM,50-58%

# — US8173131B2, “Compositions and methods for modulating RSV infection and immunity” (PerkinElmer Health Sciences, Inc., priority 2000, dated 2012)
